Experimental data: PubChem BioAssay AID248 (DTP/NCI, 2004)
Values joined by “and” are separate entries in the source; they are usually repeats but may differ in a detail not shown here. Identical values can stand only once. Inconclusive results and toxic doses are left out. Rule as the data show it: active = T/C of 150% or more; inactive = T/C below 125%.

Tested on: L1210 leukemia ip in BDF1 mice, survival T/C
Assay: NCI In Vivo Anticancer Drug Screen. Data for tumor model L1210 Leukemia (intraperitoneal) in B6D2F1 (BDF1) mice
Settings: endpoint: mean survival time, higher = longer survival
Summary of the method: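 Antitumor effect is assessed in tumor-bearing animals. Survival in the compound arm is compared with a vehicle-dosed control arm and expressed as their quotient.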

[1] = dose: 100.0 mg/kg/injection, schedule: Q04DX003 (ip), vehicle: saline
[2] = dose: 200.0 mg/kg/injection, schedule: Q04DX003 (ip), vehicle: saline
[3] = dose: 400.0 mg/kg/injection, schedule: Q04DX003 (ip), vehicle: saline
[4] = dose: 100.0 mg/kg/injection, schedule: Q01DX001 (ip), vehicle: saline with Tween-80
[5] = dose: 200.0 mg/kg/injection, schedule: Q01DX001 (ip), vehicle: saline with Tween-80
[6] = dose: 100.0 mg/kg/injection, schedule: Q01DX001 (ip), vehicle: carboxymethylcellulose (CMC)
[7] = dose: 200.0 mg/kg/injection, schedule: Q01DX001 (ip), vehicle: carboxymethylcellulose (CMC)
[8] = dose: 400.0 mg/kg/injection, schedule: Q01DX001 (ip), vehicle: carboxymethylcellulose (CMC)
[9] = dose: 100.0 mg/kg/injection, schedule: Q01DX009 (ip), vehicle: Klucel (hydroxypropylcellulose) (HPC)
[10] = dose: 75.0 mg/kg/injection, schedule: Q01DX001 (ip), vehicle: saline
[11] = dose: 150.0 mg/kg/injection, schedule: Q01DX001 (ip), vehicle: saline
[12] = dose: 300.0 mg/kg/injection, schedule: Q01DX001 (ip), vehicle: saline
[13] = dose: 100.0 mg/kg/injection, schedule: Q04DX003 (ip), vehicle: Klucel (hydroxypropylcellulose) (HPC)
[14] = dose: 400.0 mg/kg/injection, schedule: Q01DX001 (ip), vehicle: saline with Tween-80
[15] = dose: 25.0 mg/kg/injection, schedule: Q01DX009 (ip), vehicle: Klucel (hydroxypropylcellulose) (HPC)

Measured: T/C

COc1ccc(/C=C2/CSC/C(=C/c3ccc(OC)c(OC)c3)C2=O)cc1OC
inactive: [1] 103 % of control | dose: 200.0 mg/kg/injection, schedule: Q01DX009 (ip), vehicle: saline 86 % of control | [2] 94 % of control | [3] 94 % of control

CNC(=O)NC1ON=C(c2ccccc2)C1C(=O)NC (centres undefined)
inactive: [4] 98 % of control | [5] 95 % of control

Nc1c(Cl)nc(Cl)nc1C(F)(F)F
inactive: dose: 29.0 mg/kg/injection, schedule: Q01DX Z (ip), vehicle: methylcellulose (MC) 92 % of control | dose: 44.0 mg/kg/injection, schedule: Q01DX Z (ip), vehicle: methylcellulose (MC) 95 % of control

Cc1ccc(S(=O)(=O)N2CCN(S(=O)(=O)c3ccc(C)c([N+](=O)[O-])c3)CC2)cc1[N+](=O)[O-]
inactive: dose: 3.12 mg/kg/injection, schedule: Q01DX009 (ip), vehicle: clinical formulation 103 % of control | dose: 6.25 mg/kg/injection, schedule: Q01DX009 (ip), vehicle: clinical formulation 100 % of control | dose: 6.25 mg/kg/injection, schedule: Q04DX003 (ip), vehicle: clinical formulation 103 % of control | dose: 12.5 mg/kg/injection, schedule: Q01DX009 (ip), vehicle: clinical formulation 107 % of control | dose: 12.5 mg/kg/injection, schedule: Q04DX003 (ip), vehicle: clinical formulation 108 % of control | dose: 25.0 mg/kg/injection, schedule: Q01DX009 (ip), vehicle: clinical formulation 115 % of control | dose: 25.0 mg/kg/injection, schedule: Q04DX003 (ip), vehicle: clinical formulation 116 % of control | dose: 50.0 mg/kg/injection, schedule: Q01DX009 (ip), vehicle: clinical formulation 95 % of control | dose: 50.0 mg/kg/injection, schedule: Q04DX003 (ip), vehicle: clinical formulation 124 % of control

CC(=O)Nc1cccc(S(=O)(=O)F)c1
inactive: dose: 50.0 mg/kg/injection, schedule: Q01DX009 (ip), vehicle: saline with Tween-80 100 % of control | dose: 100.0 mg/kg/injection, schedule: Q01DX009 (ip), vehicle: saline with Tween-80 105 % of control | dose: 200.0 mg/kg/injection, schedule: Q01DX009 (ip), vehicle: saline with Tween-80 88 % of control

Cc1cc(=O)c2cccc(-c3ccccc3)c2[nH]1
inactive: dose: 25.0 mg/kg/injection, schedule: Q01DX009 (ip), vehicle: acetone 95 % of control | dose: 25.0 mg/kg/injection, schedule: Q04DX003 (ip), vehicle: saline 101 % of control | dose: 50.0 mg/kg/injection, schedule: Q01DX009 (ip), vehicle: acetone 92 % of control | dose: 50.0 mg/kg/injection, schedule: Q04DX003 (ip), vehicle: saline 100 % of control | dose: 100.0 mg/kg/injection, schedule: Q01DX009 (ip), vehicle: acetone 92 % of control | [1] 100 % of control | [2] 96 % of control

CCOc1ncnc2c1ncn2-c1cccc(C)c1
inactive: dose: 50.0 mg/kg/injection, schedule: Q01DX001 (ip), vehicle: carboxymethylcellulose (CMC) 98 % of control | [6] 110 % of control | [7] 101 % of control | [8] 98 % of control

CC12CC3(O)CCC1CCC2C(=O)C3 (centres undefined)
inactive: dose: 100.0 mg/kg/injection, schedule: Q01DX009 (ip), vehicle: saline 95 % of control | [1] 93 % of control | [2] 96 % of control | dose: 400.0 mg/kg/injection, schedule: Q01DX009 (ip), vehicle: saline 96 % of control | [3] 105 % of control

O=C(/C=C\c1ccccc1)OCCCCOC(=O)/C=C/c1ccccc1
inactive: dose: 50.0 mg/kg/injection, schedule: Q01DX001 (ip), vehicle: saline 103 % of control | dose: 100.0 mg/kg/injection, schedule: Q01DX001 (ip), vehicle: saline 101 % of control | dose: 200.0 mg/kg/injection, schedule: Q01DX001 (ip), vehicle: saline 91 % of control | dose: 400.0 mg/kg/injection, schedule: Q01DX001 (ip), vehicle: saline 97 % of control

COc1ccc2nc(NC3=NCCO3)sc2c1
inactive: [9] 98 % of control | dose: 200.0 mg/kg/injection, schedule: Q01DX009 (ip), vehicle: Klucel (hydroxypropylcellulose) (HPC) 94 % of control | dose: 400.0 mg/kg/injection, schedule: Q01DX009 (ip), vehicle: Klucel (hydroxypropylcellulose) (HPC) 93 % of control

CCC1([N+](=O)[O-])COP(=O)(N2CC2)OC1 (centres undefined)
inactive: [6] 106 % of control | [7] 116 % of control

Cn1nc(-c2ccccc2)[n+](C)n1
inactive: [10] 104 % of control | [11] 100 % of control | [12] 100 % of control

COc1cc2c(cc1OC(C)=O)C(=O)CCCC2
inactive: [13] 91 % of control | dose: 200.0 mg/kg/injection, schedule: Q04DX003 (ip), vehicle: Klucel (hydroxypropylcellulose) (HPC) 97 % of control | dose: 400.0 mg/kg/injection, schedule: Q04DX003 (ip), vehicle: Klucel (hydroxypropylcellulose) (HPC) 96 % of control

CC(O)CN1C(=O)c2cccc3cc([N+](=O)[O-])cc(c23)C1=O (centres undefined)
inactive: dose: 100.0 mg/kg/injection, schedule: Q04DX002 (ip), vehicle: saline with Tween-80 95 % of control | dose: 200.0 mg/kg/injection, schedule: Q04DX002 (ip), vehicle: saline with Tween-80 103 % of control | dose: 400.0 mg/kg/injection, schedule: Q04DX002 (ip), vehicle: saline with Tween-80 98 % of control

Nc1ccc(NS(=O)(=O)Cc2ccccc2)cc1
inactive: [4] 98 % of control | [5] 96 % of control | [14] 107 % of control

COC(=O)/C(=C1\C=C(c2ccccc2)C(=O)O1)c1ccccc1
inactive: [15] 98 % of control | dose: 50.0 mg/kg/injection, schedule: Q01DX009 (ip), vehicle: Klucel (hydroxypropylcellulose) (HPC) 103 % of control

CS(=O)(=O)c1nc(Cl)c(Cl)[nH]1
inactive: [4] 100 % of control | [5] 102 % of control | [14] 104 % of control

CCCCC(=O)N/N=C/c1cc2c(cc1[N+](=O)[O-])OCO2 (tested in a mixture with another compound)
inactive: [6] 91 % of control | [7] 91 % of control | [8] 91 % of control

Cc1ccc(Cl)cc1N=C=S
inactive: [10] 100 % of control | [11] 101 % of control | [12] 106 % of control

CCC(C)C(CC(=O)O)C(=O)O (centres undefined)
inactive: [1] 97 % of control | [2] 94 % of control | [3] 92 % of control

O=C(SCO)c1ccccc1
inactive: dose: 100.0 mg/kg/injection, schedule: Q01DX009 (sc), vehicle: olive oil, sesame oil, peanut oil 108 % of control | dose: 100.0 mg/kg/injection, schedule: Q04DX003 (sc), vehicle: olive oil, sesame oil, peanut oil 107 % of control | dose: 200.0 mg/kg/injection, schedule: Q01DX009 (sc), vehicle: olive oil, sesame oil, peanut oil 96 % of control | dose: 200.0 mg/kg/injection, schedule: Q04DX003 (sc), vehicle: olive oil, sesame oil, peanut oil 96 % of control | dose: 400.0 mg/kg/injection, schedule: Q01DX009 (sc), vehicle: olive oil, sesame oil, peanut oil 103 % of control | dose: 400.0 mg/kg/injection, schedule: Q04DX003 (sc), vehicle: olive oil, sesame oil, peanut oil 93 % of control

COc1ccccc1N1CCN(CCc2c[nH]c3cc4c(cc23)OCO4)CC1
inactive: dose: 3.12 mg/kg/injection, schedule: Q01DX009 (ip), vehicle: Klucel (hydroxypropylcellulose) (HPC) 103 % of control | dose: 6.25 mg/kg/injection, schedule: Q01DX009 (ip), vehicle: Klucel (hydroxypropylcellulose) (HPC) 97 % of control and 110 % of control | dose: 12.5 mg/kg/injection, schedule: Q01DX009 (ip), vehicle: Klucel (hydroxypropylcellulose) (HPC) 106 % of control and 111 % of control and 120 % of control | dose: 12.5 mg/kg/injection, schedule: Q04DX003 (ip), vehicle: Klucel (hydroxypropylcellulose) (HPC) 94 % of control | [15] 89 % of control | dose: 25.0 mg/kg/injection, schedule: Q01DX015 (ip), vehicle: carboxymethylcellulose (CMC) 102 % of control and 106 % of control | dose: 25.0 mg/kg/injection, schedule: Q04DX003 (ip), vehicle: Klucel (hydroxypropylcellulose) (HPC) 102 % of control | dose: 50.0 mg/kg/injection, schedule: Q01DX015 (ip), vehicle: carboxymethylcellulose (CMC) 104 % of control | dose: 50.0 mg/kg/injection, schedule: Q04DX003 (ip), vehicle: Klucel (hydroxypropylcellulose) (HPC) 105 % of control | [9] 112 % of control | dose: 100.0 mg/kg/injection, schedule: Q01DX015 (ip), vehicle: carboxymethylcellulose (CMC) 118 % of control | [13] 102 % of control
